From patent US20100249064A1, “METHODS AND COMPOSITIONS FOR TREATING DISEASES AND CONDITIONS INVOLVING HIGHER MOLECULAR WEIGHT HYALURONAN” (University of Chicago, priority 2007, published 2010)

Tests used:
HPMVEC = assay: EC proliferation (CellTiter96 MTS); type: cell-based, human; conditions: 100 nM HA with or without 100 nM VEGF, or siRNA 48 hours then VEGF; 24 h
Description: Determination of the role of HMW-HA/CD44 interactions in regulating hyaluronidase activity and angiogenesis in vitro. Human pulmonary microvascular EC (HPMVEC) (Cambrex), grown in EBM-2 complete medium (Cambrex) at 37° C. in a humidified atmosphere of 5% CO2, 95% air, with passages 6-10 used for experimentation was treated with or without 100 nM HMW-HA and/or 100 nM VEGF in the presence or absence of CD44 isoform-specific blocking antibodies (EMD Biosciences), siRNA (scramble, CD44, Hyal-1, Hyal-2, Hyal-3 or Hyal-4) and the potent hyaluronidase inhibitor, L-ascorbic acid 6-hexadecanoate (Botzki et al., 2004) (Sigma). […] Treated EC will either be analyzed for protein expression, hyaluronidase activity or VEGF-induced proliferation, migration or tube formation. […] Cells from the upper and lower chamber were quantitated using the CellTiter96™ MTS assay (Promega, San Luis Obispo, Calif.) and read at 492 nm. % migration was defined as the # of cells in the lower chamber […] the number of cells in both the upper and lower chamber. Each assay was set up in triplicate, repeated at least five times and analyzed statistically by Student's t test (with statistical significance set at P<0.05). […] The in vitro cell proliferation assay was analyzed by measuring increases in cell number using the CellTiter96™ MTS assay (Promega, San Luis Obispo, Calif.) and read at 492 nm. […]

Human pulmonary EC [1] = assay: TER, Example 5; type: cell-based; conditions: for change in TER: human pulmonary EC, Example 5
Description: Measurement of TransEC Electrical Resistance (TER). EC were grown to confluence in polycarbonate wells containing evaporated gold microelectrodes, and TER measurements performed using an electrical cell-substrate impedance sensing system (Applied Biophysics, Troy, N.Y.) as previously described (Garcia et al., 2001). TER values from each microelectrode were pooled at discrete time points and plotted versus time as the mean±S.E.

Human pulmonary EC [2] = assay: TER, HABP2/C1INH regulation of EC barrier function (Examples 3 and 6); type: cell-based; conditions: 100 nM HA or 10 μg/ml purified HABP2
Description: Measurement of transendothelial monolayer electrical resistance (TER). EC were grown to confluence in polycarbonate wells containing evaporated gold microelectrodes, and TER measurements performed using an electrical cell-substrate impedance sensing system obtained from Applied Biophysics (Troy, N.Y.) as previously described in detail (Garcia et al. 2001). TER values from each microelectrode were pooled at discrete time points and plotted versus time as the mean±S.E.
Determination of EC barrier function. Human pulmonary endothelial cells were grown to confluence in polycarbonate wells containing evaporated gold microelectrodes (surface area, 10-3 cm^2) in series with a large gold counter electrode (1 cm^2) connected to a phase-sensitive lock-in amplifier as described previously. Measurements of transendothelial electrical resistance (TER) were performed using an electrical cell-substrate impedance sensing system (ECIS) (Applied BioPhysics Inc.). Briefly, current was applied across the electrodes by a 4,000-Hz AC voltage source with amplitude of 1 V in series with a 1 MS/resistance to approximate a constant current source (˜1 μA). The in-phase and out-of-phase voltages between the electrodes were monitored in real time with the lock-in amplifier and subsequently converted to scalar measurements of transendothelial impedance, of which resistance was the primary focus. TER was monitored for 30 minutes to establish a baseline resistance (R0) which, for pulmonary endothelium, was typically between 8 to 12×10^3Ω (wells with R0<7×10^3Ω were rejected). As cells adhere and spread out on the microelectrode, TER increases (maximal at confluence), whereas cell retraction, rounding, or loss of adhesion was reflected by a decrease in TER. These measurements provide a highly sensitive biophysical assay that indicates the state of cell shape and focal adhesion. Values from each microelectrode were pooled at discrete time points and plotted versus time as the mean±SE of the mean (Garcia et al., 2001).

[3] = tested on: Human pulmonary artery EC; assay: Transendothelial electrical resistance (TER) of HA-treated EC monolayers, Example 1; type: cell-based; conditions: for change in transmonolayer electrical resistance (TER): 1 nM, 10 nM or 100 nM HA, serum starved EC; for effect of pretreatment of HA by boiling or proteinase K digestion on HA-induced EC TER: HA boiled or proteinase K digested; for effect of hyaluronidase SD treatment of HA on HA-induced EC TER: HA treated with hyaluronidase SD
Description: Measurement of TransEC Electrical Resistance (TER)—EC were grown to confluence in polycarbonate wells containing evaporated gold microelectrodes. TER measurements were performed using an electrical cell-substrate impedance sensing system (Applied Biophysics, Troy, N.Y.) as described (Garcia et al., 2001). TER values from each microelectrode were pooled at discrete time points and plotted versus time as the mean±S.E.

hyaluronan [LMW-HA, reference compound]
EC proliferation (% Proliferation) (HPMVEC): promotes EC proliferation and migration | change in TER (Human pulmonary EC [1]; listed as low MW HA): biphasic response ultimately leading to EC barrier disruption | change in TER / EC barrier function (Human pulmonary EC [2]; listed as low MW hyaluronan): induced negative TER changes ultimately resulting in EC barrier disruption | change in transmonolayer electrical resistance (TER) [3]: biphasic changes in TER with an initial rapid increase in barrier enhancement followed by significant and prolonged barrier disruption | effect of pretreatment of HA by boiling or proteinase K digestion on HA-induced EC TER [3]: little effect | effect of hyaluronidase SD treatment of HA on HA-induced EC TER ([3]; listed as Low MW HA): blocked the effects of Low MW HA

hyaluronan [HMW-HA]
EC proliferation (% Proliferation) (HPMVEC): inhibited VEGF-induced hyaluronidase expression, EC proliferation (A) and migration (B) | time at which HMW-HA-induced increase in TER reached plateau (Human pulmonary EC [1]): ~3 h | protection from LPS-induced EC barrier disruption (TER) (Human pulmonary EC [1]; HMW-HA (100 ng/ml), at 6 hours): protects from LPS-induced EC barrier disruption | change in TER (Human pulmonary EC [1]; listed as High MW HA): dose-dependent increase in TER | change in TER / EC barrier function (Human pulmonary EC [2]; listed as High MW hyaluronan): increased transendothelial monolayer electrical resistance (TER) | change in transmonolayer electrical resistance (TER) [3]: gradual and sustained rise in transmonolayer electrical resistance (TER) in a dose-dependent fashion | effect of pretreatment of HA by boiling or proteinase K digestion on HA-induced EC TER [3]: little effect | effect of hyaluronidase SD treatment of HA on HA-induced EC TER ([3]; listed as High MW HA): blocked the effects of High MW HA
